Laboratory results as given in US6495569B1, “Imidazolidine compounds” (Millennium Pharmaceuticals, Inc., priority 2001, dated 2002).

Biological target: T1, CXCR3 (Homo sapiens, UniProt P49682)
T1 construct: expressed in transfected cells; membrane preparation
T1 sequence (P49682 1-368): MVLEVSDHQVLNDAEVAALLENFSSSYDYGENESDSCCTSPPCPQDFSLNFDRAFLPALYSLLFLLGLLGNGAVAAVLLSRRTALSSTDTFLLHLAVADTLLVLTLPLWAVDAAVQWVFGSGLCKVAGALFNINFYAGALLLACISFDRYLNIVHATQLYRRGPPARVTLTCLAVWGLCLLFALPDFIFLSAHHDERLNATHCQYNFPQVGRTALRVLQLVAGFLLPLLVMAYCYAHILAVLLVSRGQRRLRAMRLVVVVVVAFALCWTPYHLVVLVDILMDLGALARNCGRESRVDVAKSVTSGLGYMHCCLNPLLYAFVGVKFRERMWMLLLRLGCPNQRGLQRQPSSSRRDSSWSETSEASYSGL
Test: CXCR3/IP-10 radioligand binding assay (125I-IP-10 competition on CXCR3.L1/2 cell membranes)
Conditions: test compound 10 μmol/L; 125I-labeled IP-10 0.05 to 0.2 nmol/L; CXCR3.L1/2 transfectant cell membranes; 60 min at room temperature
Excerpt: The activity of the compounds of the present invention can be assessed using a suitable assay, such as a receptor binding assay, a chemotaxis assays, an extracellular acidification assay or a calcium flux assay (see, for example, Hesselgesser et al., J. Biol. Chem. 273(25):15687-15692 (1998) and WO 98/02151). For example, as described herein, small organic molecule antagonists of CXCR3/IP-10 binding have been identified utilizing cells engineered to express recombinant human CXCR3 (CXCR3.L1/2) and which bind ^125I-IP10 and chemotax in response to IP-10, Mig or I-TAC. Specifically, a high through-put receptor binding assay, which monitors ^125I-IP10 binding to CXCR3.L1/2 cell membranes, was used to identify small molecule antagonists which block binding of IP-10, Mig or I-TAC to CXCR3.
CXCR3.L1/2 cells were pelleted by centrifugation and stored at −80° C.. The cells were lysed by thawing and resuspending at about 1.5×10^7 cells/ml in a hypotonic buffer (5 mmol/L HEPES (pH 7.2), 2 mmol/L EDTA, 10 μg/ml each leupeptin, aprotinin, and chymostatin, and 100 μg/ml PMSF (all from Sigma, St. Louis)). Nuclei and cellular debris was removed by centrifugation ([…], at 4° C.) for 10 min. The supernatant was transferred to chilled centrifuge tubes (Nalge, Rochester, N.Y.) and the membrane fraction was recovered by centrifugation (25,000 g at 4° C.) for 45 min. The membrane pellet was resuspended in freezing buffer (10 mM HEPES (pH 7.2), 300 mmol/L Sucrose, 5 μg/ml each of leupeptin, aprotinin, and chymostatin, and 10 μg/ml PMSF). The total protein concentration was determined using a coomassie blue staining protein concentration assay kit (BioRad). The membrane preparation was aliquoted and stored at −80° C. until time of use.
CXCR3/IP-10 binding was performed in 96-well polypropylene plates (Costar) in a final volume of 0.1 ml of HBB buffer (50 mmol/L Hepes pH 7.4, 1 mmol/L CaCl2, 5 mmol/L MgCl2, 0.02% sodium azide, 0.5% BSA (bovine serum albumin)) containing 1 to 5 μg of CXCR3.L1/2 transfectant cell membrane protein and 0.05 to 0.2 nmol/L ^125I-labeled IP-10 (NEN, Boston, Mass.). Competition binding experiments were performed by including variable concentrations of unlabeled IP-10 or test compound. Nonspecific binding was determined following the addition of a 250 nmol/L unlabelled IP-10. Samples were incubated for 60 min at room temperature, and bound and free tracer (^125I-IP10) were separated by filtration through 96-well GF/B filterplates (Packard) presoaked in 0.3% polyethyleneimine. The filters were washed in HBB further supplemented with 0.5 mol/L NaCl, dried, and the amount of bound radioactivity determined by liquid scintillation counting. The competition is presented as the percent specific binding as calculated by 100×[(S−B)/(T−B)], where S is the radioactivity bound for each sample, B is background binding, and T is total bound in the absence of competitors. Duplicates were used throughout the experiments.

Row | Compound | % inhibition at 10 μmol/L
1 | 1-{2-(3-Piperidinomethylbenzylthio)ethyl}-3-(1-acenaphthenyl)-2imidazolidinylidenepropanedinitrile [Compound 4] | 95%
2 | 1-{2-(3-Piperidinomethylbenzylthio)ethyl}-3-(1-naphthoyl)-2-imidazolidinylidenepropanedinitrile [Compound 7] | 93%
3 | 1-{2-(3-Piperidinomethylbenzylthio)ethyl}-3-(2,3-methylenedioxybenzyl)-2-imidazolidinylidenepropanedinitrile [Compound 6] | 84%
4 | 1-{2-(3-Piperidinomethylbenzylthio)ethyl}-3-{1-(8-methylnaphthyl)methyl}-2-imidazolidinylidenepropanedinitrile [Compound 11] | 96%
5 | N#CC(C#N)=C1N(CCSCc2cccc(CN3CCCCC3)c2)CCN1Cc1cccc2ccccc12 [Compound 1, 1-{2-(3-Piperidinomethylbenzylthio)ethyl}-3-(1-naphthylmethyl)-2-imidazolidinylidenepropanedinitrile] | 108%
6 | N#CC(C#N)=C1N(CCSCc2ccc(CN3CCCCC3)cc2)CCN1Cc1cccc2ccccc12 [Compound 2, 1-{2-(4-Piperidinomethylbenzylthio)ethyl}-3-(1-naphthylmethyl)-2-imidazolidinylidenepropanedinitrile] | 94%
7 | Cc1cccc(CN2CCN(CCSCc3cccc(CN4CCCCC4)c3)C2=C(C#N)C#N)c1C [Compound 3, 1-{2-(3-Piperidinomethylbenzylthio)ethyl}-3-(2,3-dimethylbenzyl)-2-imidazolidinylidenepropanedinitrile] | 91%
8 | N#CC(C#N)=C1N(CCCc2ccccc2)CCN1CCSCc1cccc(CN2CCCCC2)c1 [Compound 10, 1-{2-(3-Piperidinomethylbenzylthio)ethyl}-3-(3-phenylpropyl)-2-imidazolidinylidenepropanedinitrile] | 86%
